Source: patent US20240075093A1, “COMPOSITIONS AND METHODS OF TREATING A PI3K MEDIATED DISEASE” (VIRGINIA TECH INTELLECTUAL PROPERTIES, INC., priority 2020, published 2024)
Where no end group is shown, it is not given here.

Assays:
[1] = test system: PI3K/AKT signaling in SF295 cells; test: immunoblotting of PI3K/AKT signaling in SF295 cells; assay type: cell-based; settings: for AKT activity: 100 μM peptide
Description: SF295 cells were treated with 200 μM Ante-Selectide-18 for 4 days with a replenishment of fresh peptide every day. The vehicle was used as the control. PI3K/AKT signaling was analyzed using immunoblotting. Three signaling pathways (GSK3b, RAC1/CDC42, and MTOR) are shown. ACTB is the loading control.
Invasion molecules RAC1/CDC42 and MMPs are shown. Images were quantified using Image J. 0 h time point is set as 1.0. […] Apoptosis molecules FOXO3, BIM, and c-CASP3 are shown. (FIG. 9C) Invasion/survival signaling downstream of p110p.
(§1) (FIG. 12A) p110βC2in. CPP: cell-penetrating peptide. Simulated p110βC2in (rainbow as represented in greyscale) is shown. (FIG. 12B) FITC-p110βC2in in LN229/GSCs was imaged using a fluorescence microscope. Upper: FITC; lower: bright view. (FIG. 12C) PI3K/AKT activity affected by 100 μM p110βC2in (+) or C2Scramble-1 (−). (FIG. 12D) MTS Cell viability assay. Cells were treated with 50 μM peptides for 4 days. Student t test was used to determine P values.
In FIG. 3 Applicant tested whether Ante-Selectide-18 affects PI3K signaling in GBM cells. […] In contrast, another PI3K/AKT downstream target MTOR was not inhibited by this peptide.

SF295 cells [2] = test: MTS cell viability assay; assay type: cell-based; settings: 50 μM peptides, 4 days
Description: as §1
Cell viability was measured by the MTS assay. P values were determined using the student t test or one-way ANOVA. Error bars represent three independent experiments.
This scheme has been repeated in experiments presented hereafter. Cell viability was determined using the MTS viability assay. Percentages of cell viability were obtained by normalizing the MTS readings of treatment groups to that of DMSO group. (FIG. 34B) Scores of Excess Over Bliss (EOB) calculated using the Bliss Independence model. The drug combination is synergistic if EOB is more than 0%, additive if EOB equals to 0%, or antagonistic if EOB is less than 0%. […] (FIG. 34D) EOB scores of drug combinations in LN229 and VTC-001 cells. (FIG. 34E) Caspase 3/7 activity in VTC-103 and VTC-001 cells. The activity of cleaved caspase 3/7 (active) was determined using a luminescence assay. Shown are luminescence readings. (FIG. 34F) EOB scores of drug combinations in VTC-103 and VTC-001 cells. […] SF295 cells were subcutaneously injected into immuno-deficient mice. […] Tumor volumes are shown. […] Cell viability was determined using the MTS viability assay. Percentages of cell viability were obtained by normalizing the MTS readings of treatment groups to that of shNS group. […]
Cell viability was determined by the MTS cell viability assay (Promega) as described previously 21,24-27. […] At each hour time point, the absorbance at 490 nm was measured using a FilterMax F3 microplate reader (Molecular Devices, LLC) according to the manufacturer's instructions. Percent cell viability was obtained by dividing the absorbance of treatment groups to those of untreated and respective vehicle control groups.

MDA-MB-435S cells = test: melanoma cell viability (CellTiter Blue); assay type: cell-based; settings: 0-40 μM, CellTiter Blue
Description: (§2) (FIG. 49A) Immunoblotting of p110s and signaling molecules. 3-actin (ACTB) was used as the loading control. (FIG. 49B) Summary of genetic mutations and protein levels in melanoma cells. Information regarding hot spot mutations was retrieved from e.g., DepMap. (FIG. 49C) Cells were treated with 0-40 μM of inhibitors. Cell viability was measured using CellTiter Blue. IC50s were calculated using Graphpad.
(§3) (FIG. 52A) Cells were treated with 10 μM Selectide-18-FITC for 1 h and imaged immediately or after 96h. (FIG. 52B) Selectide-18-FITC in melanoma cells were imaged at different times. FITC was quantified using Image J and FITC intensities at different times were normalized with that at 1 h. Half-life was calculated using GraphPad. (FIG. 52C) UACC-62, MelST, or MeWo cells were treated with 50 μM of Selectide-18 for 4 days with daily repeated dosing. (FIG. 52D) MelST or melanoma cells were treated with 50 μM of Selectide-18 for 6 days with daily repeated dosing. Cell viability was measured using Cell-Titer Blue. (FIG. 52E) MelST, UACC-62, or MeWo cells were treated with Scramble or Selectide-18 at different doses. IC50s were calculated using GraphPad. (FIG. 52F) Nod scid mice bearing UACC-62 subcutaneous tumors were treated with Selectide-18 (3 mg/kg) intratumoral injection/daily) for 16 days. Tumors were measured using a caliper and tumor volumes were calculated as (length×width2))/2. Student t test or ANOVA was used to determine P values. ns: not significant; **: P<0.01; ***P<0.001.

p110β^hyper cells = test: melanoma cell viability (CellTiter Blue); assay type: cell-based; settings: 0-40 μM of inhibitors; for selective inhibition of cell viability: p110β^hyper cells versus MelST
Description: as §2, §3

PI3K in SK-MEL-94 cells = test: PI3K activity in melanoma cells (immunoblotting); assay type: cell-based; settings: 10 μM AZD6482
PI3K in SK-MEL-147 cells = test: PI3K activity in melanoma cells (immunoblotting); assay type: cell-based; settings: 10 μM AZD6482
tumor growth in mice = test: GBM tumor growth in mice; assay type: in vivo
p110b = p110b (Homo sapiens, UniProt P42338); test: p110b activity ELISA (cell-free kinase assay); assay type: biochemical; settings: ELISA; for activity of p110b: 100 nM, isolated protein subunit
Text: The activity of the p110b PI3K catalytic subunit was monitored via ELISA upon increasing doses of Ante-Selectide-18.
(§4) Relative activity is the ratio of respective treated groups to their non-treated controls.
(FIG. 51A) 3D of a p110β/p85α complex determined by SWISS-MODEL and Cluspro. (FIG. 51B) Protein sequences were aligned using COBALT. C2 domains (top) are show. Red bars: same residues; Grey bars: different residues; Red lines: missing residues. […] in p110β C2 (bottom) is shown and termed as 018. Docking of p110β and p85α (FIG. 51C) or p110α and p85α (FIG. 51D) was done by SWISS-MODEL, Cluspro, and Chimera. The 018 motif is labeled in magenta. Deletion of β18 motif (FIG. 51E) changed the 3D shapes of p110β/p85 (FIG. 51C). (FIG. 51F) p110β cell-free kinase assay. An enzyme-linked immunosorbent assay (ELISA) was used to measure levels of lipids PIP2/PIP3. (FIG. 51G) Effect of PI3K inhibitors on p110s using ELISA. p110β (FIG. 51H) or p110α (FIG. 51I) was docked with Selectide-18-bound p85α using Cluspro/Chimera.
(§5) Applicant also included a control scramble peptide containing the antennapedia sequence followed by the amino acid sequence of Ante-Selectide-18 randomly scrambled. […] Applicant reports that this drug is not effective at inhibiting the kinase activity of p110b or other PI3K subunits at 100 nM, showing the promise of the Ante-Selectide-18 peptide as a potent selective p110b inhibitor at a low dose.

p110c = p110c (Homo sapiens, UniProt P42336); test: PI3K subunit activity ELISA; assay type: biochemical; settings: 100 nM
Description: as §4, §5

p110γ = p110γ (Homo sapiens, UniProt P48736); test: PI3K subunit activity ELISA; assay type: biochemical; settings: 100 nM
Description: as §4, §5

p110δ = p110δ (Homo sapiens, UniProt O00329); test: PI3K subunit activity ELISA; assay type: biochemical; settings: 100 nM
Description: as §4, §5

LN229/GSCs [3] = test: wound-healing (migration) assay; assay type: cell-based; settings: 8 μM, 24 hours
Description: (§6) (FIG. 8A) Wound-healing assay. Cells were plated confluently and then treated with PI3K isoform-selective inhibitors at 8 μM for 24 hours. Cells were imaged at 0- and 24-hour time point. Images of 24-hour time point are shown. Scale bar: […]. (FIG. 8B-8D) Quantification of migration distance. Images from three different areas were analyzed using Image J. Migration distances were obtained by subtracting 24-hour measurements with those of 0-hour.

SF295 cells [4] = test: wound-healing (migration) assay; assay type: cell-based; settings: 8 μM, 24 hours
Description: as §6

LN229/GSCs [5] = test: TMZ sensitivity of LN229/GSCs; assay type: cell-based; settings: Homo sapiens, LN-229
AKT = AKT activation in GBM cells; assay type: cell-based
[6] = 200 μM, 4 days, fresh peptide every day

Chain of p110b (P42338 whole entry): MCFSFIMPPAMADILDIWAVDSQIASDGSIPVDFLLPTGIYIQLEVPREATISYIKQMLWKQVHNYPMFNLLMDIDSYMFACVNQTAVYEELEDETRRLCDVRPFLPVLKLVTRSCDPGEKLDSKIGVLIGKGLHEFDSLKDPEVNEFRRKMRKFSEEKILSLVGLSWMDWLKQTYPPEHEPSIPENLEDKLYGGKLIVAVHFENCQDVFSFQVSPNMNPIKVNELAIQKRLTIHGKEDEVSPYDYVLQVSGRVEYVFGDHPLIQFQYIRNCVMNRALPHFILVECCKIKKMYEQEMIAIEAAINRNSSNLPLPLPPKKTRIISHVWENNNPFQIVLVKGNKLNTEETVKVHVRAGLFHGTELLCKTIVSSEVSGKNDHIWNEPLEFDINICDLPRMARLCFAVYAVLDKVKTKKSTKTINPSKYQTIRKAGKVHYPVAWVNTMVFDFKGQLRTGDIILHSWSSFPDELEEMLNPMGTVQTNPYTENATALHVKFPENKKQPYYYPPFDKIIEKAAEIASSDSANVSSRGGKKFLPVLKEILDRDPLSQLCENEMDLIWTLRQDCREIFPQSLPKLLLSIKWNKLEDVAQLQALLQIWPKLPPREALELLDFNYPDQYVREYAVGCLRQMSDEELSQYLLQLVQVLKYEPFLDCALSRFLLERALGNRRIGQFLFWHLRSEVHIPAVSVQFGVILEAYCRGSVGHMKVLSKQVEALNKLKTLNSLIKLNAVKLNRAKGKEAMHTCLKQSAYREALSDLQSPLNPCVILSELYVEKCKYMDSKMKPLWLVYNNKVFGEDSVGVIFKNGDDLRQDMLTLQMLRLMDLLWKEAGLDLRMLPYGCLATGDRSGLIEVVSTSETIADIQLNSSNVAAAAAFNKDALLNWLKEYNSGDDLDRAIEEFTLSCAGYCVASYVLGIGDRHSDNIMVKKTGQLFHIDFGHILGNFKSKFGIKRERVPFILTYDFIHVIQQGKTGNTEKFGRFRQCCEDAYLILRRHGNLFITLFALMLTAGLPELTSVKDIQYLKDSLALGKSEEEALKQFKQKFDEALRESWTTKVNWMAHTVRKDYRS
Chain of p110γ (P48736 whole entry): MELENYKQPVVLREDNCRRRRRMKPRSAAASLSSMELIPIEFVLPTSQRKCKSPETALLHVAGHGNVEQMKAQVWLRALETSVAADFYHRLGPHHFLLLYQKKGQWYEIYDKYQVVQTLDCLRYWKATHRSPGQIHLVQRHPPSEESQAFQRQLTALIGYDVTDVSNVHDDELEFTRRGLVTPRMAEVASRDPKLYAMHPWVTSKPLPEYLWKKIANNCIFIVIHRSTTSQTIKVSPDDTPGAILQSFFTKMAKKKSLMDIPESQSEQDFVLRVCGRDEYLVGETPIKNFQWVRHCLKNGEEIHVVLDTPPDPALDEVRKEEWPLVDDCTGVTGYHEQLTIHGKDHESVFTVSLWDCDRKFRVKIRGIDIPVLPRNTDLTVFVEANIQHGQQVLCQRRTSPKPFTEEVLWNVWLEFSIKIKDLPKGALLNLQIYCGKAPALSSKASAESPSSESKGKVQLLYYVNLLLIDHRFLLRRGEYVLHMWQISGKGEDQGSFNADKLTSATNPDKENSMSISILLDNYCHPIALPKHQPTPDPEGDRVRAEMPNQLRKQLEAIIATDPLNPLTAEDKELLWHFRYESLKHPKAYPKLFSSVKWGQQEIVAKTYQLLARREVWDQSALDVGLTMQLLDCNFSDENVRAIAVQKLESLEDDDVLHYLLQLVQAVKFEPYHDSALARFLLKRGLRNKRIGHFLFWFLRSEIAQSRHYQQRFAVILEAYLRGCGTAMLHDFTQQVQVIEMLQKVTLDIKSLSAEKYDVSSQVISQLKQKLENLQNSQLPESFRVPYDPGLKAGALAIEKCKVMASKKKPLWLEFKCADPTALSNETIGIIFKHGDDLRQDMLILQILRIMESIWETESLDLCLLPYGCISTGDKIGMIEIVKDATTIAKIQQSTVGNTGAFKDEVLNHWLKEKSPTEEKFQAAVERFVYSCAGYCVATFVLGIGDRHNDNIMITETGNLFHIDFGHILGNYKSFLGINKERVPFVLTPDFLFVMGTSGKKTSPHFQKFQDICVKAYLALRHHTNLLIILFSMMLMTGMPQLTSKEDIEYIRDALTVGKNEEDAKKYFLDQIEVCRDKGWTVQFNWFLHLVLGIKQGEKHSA
Chain of p110c (P42336 whole entry): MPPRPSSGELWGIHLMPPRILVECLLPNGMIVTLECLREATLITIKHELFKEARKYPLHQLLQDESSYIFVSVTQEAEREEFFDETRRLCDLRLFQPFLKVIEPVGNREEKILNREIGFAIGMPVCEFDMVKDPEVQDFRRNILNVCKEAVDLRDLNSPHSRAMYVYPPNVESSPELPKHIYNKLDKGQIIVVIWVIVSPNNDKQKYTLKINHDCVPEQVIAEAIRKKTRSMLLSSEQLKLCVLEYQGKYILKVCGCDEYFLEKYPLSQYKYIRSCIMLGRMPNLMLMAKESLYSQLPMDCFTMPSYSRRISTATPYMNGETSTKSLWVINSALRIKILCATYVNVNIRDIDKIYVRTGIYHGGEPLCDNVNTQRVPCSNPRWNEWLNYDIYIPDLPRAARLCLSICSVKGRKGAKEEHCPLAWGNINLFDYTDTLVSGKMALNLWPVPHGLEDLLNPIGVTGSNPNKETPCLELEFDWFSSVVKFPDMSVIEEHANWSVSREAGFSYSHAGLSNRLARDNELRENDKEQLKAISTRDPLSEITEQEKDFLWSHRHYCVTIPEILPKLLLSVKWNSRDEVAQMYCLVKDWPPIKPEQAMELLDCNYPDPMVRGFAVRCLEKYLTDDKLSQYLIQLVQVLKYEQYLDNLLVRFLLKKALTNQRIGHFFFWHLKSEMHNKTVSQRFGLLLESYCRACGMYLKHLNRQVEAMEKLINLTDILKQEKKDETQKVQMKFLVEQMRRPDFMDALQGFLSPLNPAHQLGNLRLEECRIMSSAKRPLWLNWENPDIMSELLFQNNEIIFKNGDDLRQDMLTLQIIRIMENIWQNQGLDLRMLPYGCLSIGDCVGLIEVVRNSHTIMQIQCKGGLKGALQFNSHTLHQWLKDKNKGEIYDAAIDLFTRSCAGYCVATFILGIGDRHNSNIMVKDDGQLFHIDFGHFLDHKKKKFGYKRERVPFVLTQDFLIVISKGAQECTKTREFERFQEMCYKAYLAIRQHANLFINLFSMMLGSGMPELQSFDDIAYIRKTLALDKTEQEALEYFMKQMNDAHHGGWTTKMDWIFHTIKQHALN
Chain of p110δ (O00329 whole entry): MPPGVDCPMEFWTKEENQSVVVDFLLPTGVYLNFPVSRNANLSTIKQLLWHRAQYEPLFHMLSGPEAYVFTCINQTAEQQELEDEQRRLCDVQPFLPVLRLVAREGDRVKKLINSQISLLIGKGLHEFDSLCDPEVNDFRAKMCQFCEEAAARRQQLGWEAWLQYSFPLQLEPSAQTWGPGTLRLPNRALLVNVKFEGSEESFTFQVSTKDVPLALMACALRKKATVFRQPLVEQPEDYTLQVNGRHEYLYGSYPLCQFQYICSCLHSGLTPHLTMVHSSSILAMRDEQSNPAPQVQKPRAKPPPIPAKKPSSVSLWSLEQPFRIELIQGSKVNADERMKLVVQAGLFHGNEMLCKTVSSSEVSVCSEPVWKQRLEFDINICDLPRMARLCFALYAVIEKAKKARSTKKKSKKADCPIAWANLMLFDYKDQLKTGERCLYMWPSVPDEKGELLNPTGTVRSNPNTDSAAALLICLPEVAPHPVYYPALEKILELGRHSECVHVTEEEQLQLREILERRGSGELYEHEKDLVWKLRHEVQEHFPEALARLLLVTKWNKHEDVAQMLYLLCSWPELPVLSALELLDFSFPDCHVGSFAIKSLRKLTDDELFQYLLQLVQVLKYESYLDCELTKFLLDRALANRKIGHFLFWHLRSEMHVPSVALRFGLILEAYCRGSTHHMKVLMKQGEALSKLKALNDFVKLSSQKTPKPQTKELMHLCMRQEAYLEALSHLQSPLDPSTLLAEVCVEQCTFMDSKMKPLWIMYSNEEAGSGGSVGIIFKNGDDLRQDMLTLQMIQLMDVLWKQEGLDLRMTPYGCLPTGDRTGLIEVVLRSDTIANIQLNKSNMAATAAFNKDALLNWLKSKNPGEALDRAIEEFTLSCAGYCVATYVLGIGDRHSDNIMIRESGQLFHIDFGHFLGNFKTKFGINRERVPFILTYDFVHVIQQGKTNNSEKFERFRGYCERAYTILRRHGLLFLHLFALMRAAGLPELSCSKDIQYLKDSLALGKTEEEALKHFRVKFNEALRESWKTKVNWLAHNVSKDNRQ
Chain of p110δ (P27986 whole entry partner): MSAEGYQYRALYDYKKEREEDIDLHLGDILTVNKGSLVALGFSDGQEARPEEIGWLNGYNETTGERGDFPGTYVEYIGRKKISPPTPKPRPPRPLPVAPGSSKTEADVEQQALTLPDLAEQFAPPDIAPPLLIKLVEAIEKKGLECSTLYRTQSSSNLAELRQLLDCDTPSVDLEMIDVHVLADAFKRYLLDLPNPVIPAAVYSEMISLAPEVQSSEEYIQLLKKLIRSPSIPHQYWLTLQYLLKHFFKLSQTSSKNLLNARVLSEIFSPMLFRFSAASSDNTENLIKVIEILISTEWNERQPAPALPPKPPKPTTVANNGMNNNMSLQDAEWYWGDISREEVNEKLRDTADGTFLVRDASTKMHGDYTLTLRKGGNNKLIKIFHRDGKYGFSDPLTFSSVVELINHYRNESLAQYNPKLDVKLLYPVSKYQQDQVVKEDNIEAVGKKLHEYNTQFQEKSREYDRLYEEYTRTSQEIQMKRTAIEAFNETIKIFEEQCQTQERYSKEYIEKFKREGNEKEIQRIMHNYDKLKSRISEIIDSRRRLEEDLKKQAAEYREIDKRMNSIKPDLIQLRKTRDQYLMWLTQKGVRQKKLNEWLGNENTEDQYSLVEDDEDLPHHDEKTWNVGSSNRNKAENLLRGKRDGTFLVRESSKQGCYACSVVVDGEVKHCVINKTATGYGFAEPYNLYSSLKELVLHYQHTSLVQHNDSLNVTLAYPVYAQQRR

RRRRRRRRTKKSTKTINPSKYQTIRK (p110bC2in - Selectide-18 with a cell penetrating peptide) [p110βC2in]
AKT activity [1]: blocked AKT activity | cell viability (SF295 cells [2]): suppressed cell viability

Cc1cc([C@@H](C)Nc2ccccc2C(=O)O)c2nc(N3CCOCC3)cc(=O)n2c1 [AZD6482]
sensitivity to AZD6482 (MDA-MB-435S cells): not sensitive and not | cytotoxicity (p110β^hyper cells; CellTiter Blue): cytotoxic | PI3K activity (PI3K in SK-MEL-94 cells): inactivated PI3K | PI3K activity (PI3K in SK-MEL-147 cells): not

Nc1nc2cc(-c3ccc4ncc(C(=O)N5CCOCC5)n4c3)ccc2o1 [MLN1117]
selective inhibition of cell viability (p110β^hyper cells): did not show a selective inhibition of cell viability

Cc1c(Cn2c(C)nc3c(C(=O)O)cc(N4CCOCC4)cc32)cccc1C(F)(F)F [GSK2636771]
tumor growth in mice (tumor growth in mice): slow down tumor growth

RQPKIWFPNRRKPWKKTKKSTKTINPSKYQTIRK [Ante-Selectide-18]
activity of p110b (p110b): inhibits the activity | activity of p110b (p110b; listed as ante-Selectide-18): Only Inhibits p110b | IC50 (p110b; increasing doses): 0.105 µM | activity of PI3K subunit p110c (p110c): does not affect | activity of PI3K subunit p110γ (p110γ): does not affect | activity of PI3K subunit p110δ (p110δ): does not affect | MTOR (PI3K/AKT downstream target) [1, 6]: not inhibited | active forms of GSK3b and RAC1/CDC42 [1, 6]: remarkable decrease | levels of phosphorylated form of AKT [1, 6]: substantially reduced

scramble peptide: control C2Scramble peptide, e.g. TYKTSKRISKQTIKKPNT fused with RRRRRRRR (IYKTSKTRSQKTKIKPNT)
AKT activity [1]: not | cell viability (SF295 cells [2]): not

Nc1cc(C(F)(F)F)c(-c2cc(N3CCOCC3)nc(N3CCOCC3)n2)cn1 [BKM120]
cell migration (LN229/GSCs [3]): inhibited the migration | cell migration (SF295 cells [4]): inhibited the migration

IYKTSKTRSQKTKIKPNT (Scrambled control peptide) [scrambled peptide]
activity of p110b (p110b): didn't inactivate p110β

CC(C)(C)NS(=O)(=O)c1cncc(-c2cc(F)c3nc(N)nn3c2)c1 [CZC24832]
selective inhibition of cell viability (p110β^hyper cells): did not show a selective inhibition of cell viability

Cn1nnc2c(C(N)=O)ncn2c1=O [TMZ, temozolomide]
IC50 (LN229/GSCs [5]): 100 µM

Cc1ccc([N+](=O)[O-])cc1S(=O)(=O)N(C)/N=C/c1cnc2ccc(Br)cn12 [PIK-75]
AKT activation / selectivity (AKT): non-selectively inhibits AKT and ERK
